Results as given in ChEMBL document CHEMBL1152712, “5-Hydroxyindole-type alkaloids, as Candida albicans isocitrate lyase inhibitors, from the tropical sponge Hyrtios sp” (Bioorg Med Chem Lett, 2009).
pIC50: −log10 of the molar value. Converted amounts (≈) assume the structure as drawn.

Legend:
Isocitrate lyase = Isocitrate lyase (Candida albicans, UniProt Q9P8Q7); assay: Inhibition of Candida albicans isocitrate lyase
Candida albicans = assay: Antimicrobial activity against Candida albicans ATCC 10231; type: functional

Isocitrate lyase, sequence (Q9P8Q7 whole entry): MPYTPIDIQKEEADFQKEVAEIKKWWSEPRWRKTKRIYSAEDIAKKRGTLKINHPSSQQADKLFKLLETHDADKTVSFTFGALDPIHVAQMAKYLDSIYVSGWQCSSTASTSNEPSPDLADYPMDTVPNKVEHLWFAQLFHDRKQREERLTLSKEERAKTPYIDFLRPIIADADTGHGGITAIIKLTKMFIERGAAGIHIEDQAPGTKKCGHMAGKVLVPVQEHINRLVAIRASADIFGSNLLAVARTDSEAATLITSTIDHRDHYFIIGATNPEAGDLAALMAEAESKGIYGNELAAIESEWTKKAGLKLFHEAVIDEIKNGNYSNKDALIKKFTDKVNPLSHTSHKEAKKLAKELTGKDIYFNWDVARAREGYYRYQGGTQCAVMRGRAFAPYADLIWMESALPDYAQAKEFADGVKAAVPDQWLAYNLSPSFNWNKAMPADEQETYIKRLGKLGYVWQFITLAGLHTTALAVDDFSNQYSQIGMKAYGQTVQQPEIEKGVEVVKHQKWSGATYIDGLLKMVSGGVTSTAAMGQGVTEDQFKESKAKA

Row | SMILES | pIC50 (Isocitrate lyase) | MIC (Candida albicans)
1 | NCCc1c[nH]c2ccc(O)cc12 [SEROTONIN] | 3.52 | > 1130 µM
2 | O=C(O)CC[N+](=O)[O-] |  | > 1690 µM
3 | O=C(C(=O)c1c[nH]c2ccc(O)cc12)c1c[nH]c2ccc(O)cc12 [HYRTIOSIN B] | 4.05 | > 624 µM
4 | C[C@@H]1[C@H](O)[C@@H](C)/C=C/C=C/C=C/C=C/C=C/C=C/C=C/[C@H](O[C@@H]2O[C@H](C)[C@@H](O)[C@H](N)[C@@H]2O)C[C@@H]2O[C@](O)(C[C@@H](O)C[C@@H](O)[C@H](O)CC[C@@H](O)C[C@@H](O)CC(=O)O[C@H]1C)C[C@H](O)[C@H]2C(=O)O [AMPHOTERICIN B] |  | 1.7 µM (≈ 1.57 µg/mL)

Now from value to compound:

Row | pIC50 (Isocitrate lyase) | MIC (Candida albicans) | SMILES
5 | 3.61 | > 1020 µM | O=Cc1c[nH]c2ccc(O)cc12
6 | 3.42 | > 869 µM | O=C(O)C1=NCCc2c1[nH]c1ccc(O)cc21
7 | < 3.00 | > 989 µM | O=C1NCCc2c1[nH]c1ccc(O)cc21
8 | 3.10 | > 1050 µM | COC(=O)c1c[nH]c2ccc(O)cc12
9 | 3.50 | > 1050 µM | O=C(CO)c1c[nH]c2ccc(O)cc12 [HYRTIOSIN A]
